pEC50: −log10 of the molar value. Like-named read-outs stand apart in the source and are kept apart here.
Assays:
HCV Subgenomic Replicon = test: HCV-Huh-5-2 replicon cell assay (luciferase); format: cell-based, Hepatitis C virus; details: for pEC50: HCV subgenomic replicon in Huh-5-2 cells, 72 hours, luciferase, read-out: EC50 (concentration required to inhibit luciferase activity in the replicon system by 50%); for SI (selectivity index, ratio of CC50 to EC50): Huh-5-2 cells
Description: (§1) Huh-5-2 cells [a cell line with a persistent HCV replicon I3891uc-ubi-neo/NS3-3′/5.1; replicon with firefly luciferase-ubiquitin-neomycin phosphotransferase fusion protein and EMCV-IRES driven NS3-5B HCV polyprotein] was cultured in RPMI medium (Gibco) supplemented with 10% fetal calf serum, 2 mM L-glutamine (Life Technologies), 1× non-essential amino acids (Life Technologies); 100 IU/ml penicillin and 100 ug/ml streptomycin and 250 ug/ml G418 (Geneticin, Life Technologies). Cells were seeded at a densitiy of 7000 cells per well in 96 well View Plate™ (Packard) in medium containing the same components as described above, except for G418. Cells were allowed to adhere and proliferate for 24 hr. At that time, culture medium was removed and serial dilutions of the test compounds were added in culture medium lacking G418. Interferon alfa 2a (500 IU) was included as a positive control. Plates were further incubated at 37° C. and 5% CO2 for 72 hours. Replication of the HCV replicon in Huh-5 cells results in luciferase activity in the cells. Luciferase activity is measured by adding 50 μl of 1× Glo-lysis buffer (Promega) for 15 minutes followed by 50 ul of the Steady-Glo Luciferase assay reagent (Promega). Luciferase activity is measured with a luminometer and the signal in each individual well is expressed as a percentage of the untreated cultures. Parallel cultures of Huh-5-2 cells, seeded at a density of 7000 cells/well of classical 96-well cell culture plates (Becton-Dickinson) are treated in a similar fashion except that no Glo-lysis buffer or Steady-Glo Luciferase reagent is added. Instead the density of the culture is measured by means of the MTS method (Promega).

Huh-5-2 cells = test: Cytostatic effect on Huh-5-2 cells (MTS method, parallel cultures); format: cell-based; details: 72 hours, read-out: CC50 (concentration required to inhibit the proliferation of exponentially growing Huh-5-2 cells by 50%)
Description: as §1

[1] = as above; format: cell-based; details: human, read-out: CC50 (concentration required to inhibit the proliferation of exponentially growing Huh-5-2 cells by 50%)
Description: as §1

Work on `CC(=O)OCC1OC(n2c(SCc3cc4cc(Br)ccc4oc3=O)nc3cc(Cl)c(Cl)cc32)C(OC(C)=O)C(OC(C)=O)C1OC(C)=O` (centres unmarked) [Compound 7g, Acetic acid 3,5-diacetoxy-2-acctoxymethyl-6-[2-(6-bromo-2-oxo-2H-chromen-3-ylmethylsulfanyl)-5,6-dichloro-benzoimidazol-1-yl]-tetrahydro-pyran-4-yl ester] yielded a pEC50 (HCV Subgenomic Replicon) of 5.39 and a CC50 (Huh-5-2 cells) of over 64.8 µM.
In the case of `COc1cccc2cc(CSc3nc4cnc(Cl)nc4[nH]3)c(=O)oc12` [Compound 16e, 3-(2-Chloro-9H-purin-8-ylsulfanylmethyl)-8-methoxy-chromen-2-one], the pEC50 (HCV Subgenomic Replicon; Hepatitis C virus) was 4.71, the “SI (selectivity index, ratio of CC50 to EC50)” value (HCV Subgenomic Replicon) was 4.80 and the CC50 at 72 h [1] was 94 µM.
With `O=c1oc2ccccc2cc1CSc1nc2ccccc2o1` [Compound 19a, 3-(Benzooxazol-2-ylsulfanylmethyl)-chromen-2-one] the pEC50 (HCV Subgenomic Replicon; Hepatitis C virus) was 4.93, the “SI (selectivity index, ratio of CC50 to EC50)” value (HCV Subgenomic Replicon) was 3.86 and the CC50 at 72 h [1] was 45.2 µM.
With `O=c1oc2ccc(Br)cc2cc1CSc1nc2ccccc2o1` [Compound 19c, 3-(Benzooxazol-2-ylsulfanylmethyl)-6-bromo-chromen-2-one] the pEC50 (HCV Subgenomic Replicon; Hepatitis C virus) was 4.93, the “SI (selectivity index, ratio of CC50 to EC50)” value (HCV Subgenomic Replicon) was 11.10 and the CC50 at 72 h [1] was 131 µM.
In the case of `CC(=O)OCC1OC(n2c(SCc3cc4cc(Br)ccc4oc3=O)nc3ccccc32)CC(OC(C)=O)C1OC(C)=O` (centres unmarked) [Compound 22c, Acetic acid 3,4-diacetoxy-6-[2-(6-bromo-2-oxo-2H-chromen-3-ylmethylsulfanyl)-benzoimidazol-1-yl]-tetrahydro-pyran-2-ylmethyl ester], the pEC50 (HCV Subgenomic Replicon; Hepatitis C virus) was 5.39, the “SI (selectivity index, ratio of CC50 to EC50)” value (HCV Subgenomic Replicon) was 3.95 and the CC50 at 72 h [1] was 16.1 µM.
